# Measured values: patent publication US6902881B2, “Compounds and methods for regulating cell differentiation” (priority 2000, dated 2005)
# Several values for one entry are separate records, joined by “and”; a condition that tells them apart may be missing. Equal values may be shown once.
# Columns and labels:
# [1] = test system: thyroid cancer (Th) cells; experiment: Proliferation of thyroid carcinoma cells; assay type: cell-based, human
# [2] = test system: Normal Fibroblast (3T3-L1 fibroblasts); experiment: Cellular triacyl glycerol (TAG) content, normal fibroblast; assay type: cell-based; settings: 3T3-L1 fibroblasts with insulin
# Description: Expression of differentiation markers. Carcinoembryogenic antigen in cell supernatants collected each three days was assayed by standard ELISA determinations using an IMX assay for quantitative measurement of the antigen. Cellular triacyl glycerol content was measured spectrophotometrically by enzymatic hydrolysis and analysis of the amount of glycerol released using a standard assay, Triglyceride (INT) 10 (Sigma Diagnostics). […] The fluorescence is detected at 450 nm with an excitation of 365 nm, using a Jobin Ivon-Spex Fluoro Max-2 fluorimeter. The alkaline phosphatase activity detected was expressed in units of μmol/mg protein/min. These compounds also affect the timing for the fat accumulation. After 9 days of incubation with insulin and bovine pituitary extract, but without biliverdin, the fat droplets in the cells are small and scattered diffusely throughout the cell. These globules continue to enlarge to fill most of the cytoplasmic space by day 14. In contrast, by day 7 the cells incubated in the presence of biliverdin already contain large, grouped and prominent droplets. While the triacyl glycerol content increases in both HT 29 and liposarcoma cells, the fat droplets in HT 29 cells are smaller than those that fill the cytoplasm of the liposarcoma cells. 3T3-L1 fibroblasts differentiate into adipocytes in the presence of insulin (Table VII). In the absence of biliverdin, this hormone increases the triacylglycerol content of 3T3-L1 fibroblasts by 3-fold relative to control. When biliverdin is added, a progressively greater content of triacyl glycerol is achieved at day 9. The increase is dependent on the biliverdin concentration. At the highest concentration used, 4×10^−7 M, there is a 5.8-fold increase of triacyl glycerol content over that of the undifferentiated fibroblasts (Table VII). This almost doubles the amount in the cells incubated with differentiation medium alone and is nearly as high as observed with troglitazone. At a lower biliverdin concentration, 10^−8 M, there is a 3.5-fold increase compared to control values. Remarkably, the amounts of biliverdin required to achieve the effects on proliferation, cell cycle and differentiation marker up-regulation, i.e. 10^−7-10^−06 M, are the same as those needed to re-establish the capacity of embryos depleted of the tetrapyrrole by treatment with UV-light to form a dorsal axis.
# [3] = test system: B-lymphoblast (LB) cells; experiment: Proliferation of B-lymphoblast cells; assay type: cell-based, mouse
# [4] = target: T1, peroxisome proliferator-activated receptor (PPARγ) system (Homo sapiens, UniProt P37231); experiment: Use of the peroxisome proliferator-activated receptor system
# T1 sequence (P37231 1-505): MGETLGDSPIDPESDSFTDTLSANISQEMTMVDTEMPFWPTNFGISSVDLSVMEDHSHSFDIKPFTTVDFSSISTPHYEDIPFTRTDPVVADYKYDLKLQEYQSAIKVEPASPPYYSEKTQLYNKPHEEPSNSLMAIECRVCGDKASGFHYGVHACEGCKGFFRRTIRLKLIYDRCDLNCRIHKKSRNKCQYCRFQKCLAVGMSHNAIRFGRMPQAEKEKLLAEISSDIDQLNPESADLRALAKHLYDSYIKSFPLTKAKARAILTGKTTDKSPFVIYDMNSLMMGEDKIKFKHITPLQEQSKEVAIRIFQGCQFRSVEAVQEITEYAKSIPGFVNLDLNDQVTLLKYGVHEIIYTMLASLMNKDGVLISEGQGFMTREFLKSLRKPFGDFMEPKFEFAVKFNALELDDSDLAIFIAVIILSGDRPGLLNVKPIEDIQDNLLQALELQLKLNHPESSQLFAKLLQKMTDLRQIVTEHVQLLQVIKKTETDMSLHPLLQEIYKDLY
# [5] = test system: alkaline phosphatase activity in HT 29 cells; experiment: Cellular alkaline phosphatase activity of HT 29 cells; assay type: cell-based, human; settings: HT 29, by day 20 of incubation
# Description: Expression of differentiation markers. Carcinoembryogenic antigen in cell supernatants collected each three days was assayed by standard ELISA determinations using an IMX assay for quantitative measurement of the antigen. Cellular triacyl glycerol content was measured spectrophotometrically by enzymatic hydrolysis and analysis of the amount of glycerol released using a standard assay, Triglyceride (INT) 10 (Sigma Diagnostics). […] The fluorescence is detected at 450 nm with an excitation of 365 nm, using a Jobin Ivon-Spex Fluoro Max-2 fluorimeter. The alkaline phosphatase activity detected was expressed in units of μmol/mg protein/min. Alkaline phosphatase activity was assayed at the same periods as above but with different sets of cells. Treated and control cells were detached with trypsin and counted. One half of the cells were used to maintain the culture while the other half were used to measure alkaline phosphatase activity. […] Absorbance was detected at […] on a Varian Cary UV-Visible Spectrophotometer. The absorbance was compared against a standard curve created with bovine serum albumin from 2.5 to 25 μg/ml. […] The fluorescence generated is detected at 450 nm with an excitation of 365 nm, using a Jobin Ivon-Spex Fluoro Max-2 fluorimeter. […] The alkaline phosphatase actively detected was expressed in units of μmol product/mg protein/min.
structure (smiles),measurement,setting,value
"C=CC1=C(C)/C(=C/C2=NC(=C\c3[nH]c(/C=C4\NC(=O)C(C)=C4C=C)c(C)c3CCC(=O)O)/C(CCC(=O)O)=C2C)NC1=O [Biliverdin, biliverdin IXα]",division slower than control,[1],4.7 times
same,time until proliferation ceases,[1],six days and 6 days
same,recovery of proliferative rate,[1]; 12-day observation period,did not recover its proliferative rate at all
same,increase of triacyl glycerol content over undifferentiated fibroblasts,"[2]; biliverdin 4×10^−7 M, day 9",5.8 fold
same,increase of triacyl glycerol content compared to control values,[2]; biliverdin 10^−8 M,3.5 fold
same,time until proliferation ceases,[3],within one day
same,time until cell division resumes at nearly the control rate,[3]; still exposed,3 to 4 days
same,use of the PPARγ system,[4],does not use
same,peak increase of alkaline phosphatase activity,[5],fifteen-fold
